Source: patent US8859756B2, “Stereoselective synthesis of phosphorus containing actives” (Gilead Pharmasset LLC, priority 2010, dated 2014)
Like-named read-outs stand apart in the source and are kept apart here.

Legend:
Assay type in all cases: cell-based
[1] = test system: HCV RNA replication; assay: HCV Inhibition Assay (replicon; RT-PCR or luciferase reporter readout); details: concentration for 90% inhibition of HCV replication, Clone A or ET-lunet replicon cells, 4 days
Method: Clone A or ET-lunet cells were seeded at a density of 1500 or 3000 cells per well in a 96-well plate, respectively. Test compounds serially diluted in culture medium without G418 were added to cells so that the final DMSO concentration was 0.5%. Plates were incubated at 37° C. in a 5% CO2 atmosphere for 4 days. Inhibition of HCV RNA replication was determined by real time PCR (RT-PCR) or by measuring the levels of luminescence expressed via the luciferase reporter gene encoded within the ET replicon. Briefly, for the RT-PCR assay, total RNA was extracted using the RNeasy-96 kit as recommended by the manufacturer (Qiagen, Valencia, Calif.), reversed transcribed into cDNA, and amplified using primer and probe mix for HCV 5′-NTR RNA and human ribosomal RNA (rRNA) in a one-step RT-PCR reaction as described previously (Stuyver, L. J. et al. Antiviral Chem. Chemother. (2006) 17, 79-87). A relative quantification method was used to determine the extent of inhibition. The threshold cycle (Ct) of rRNA was subtracted from the Ct of HCV RNA (ΔCt). The average ΔCt of the DMSO cell controls was then subtracted from the ΔCt of the compound treated sample (ΔΔCt). Percent inhibition was determined by using the following equation: %=(1−(2^−ΔΔC^t))×100. For the luciferase-based replicon assay, luminescence was measured by using a Victor3 plate reader (Perkin-Elmer, Boston, Mass.) following the addition of Bright-Glo reagent as recommended by the manufacturer (Promega, Madison, Wis.). Percent inhibition of HCV replication was determined by comparing the change in luminescence of the drug treated wells versus the DMSO cell controls. EC50 and EC90 values, the concentrations at which 50% and 90% inhibition were achieved, were determined using the GraphPad Prism software (San Diego, Calif.).

[2] = Cytotoxicity, MTT Assay (table footnote a)
[3] = test system: Huh7, HepG2, BxPC3, or CEM cells; assay: Cell Cytotoxicity Assays (MTS dye); details: 50% inhibition value, 8 days, cell line not given
Method: (§1) Cell Cytotoxicity Assays.
(§2) Each compound (serially diluted from 100 μM) was added to Huh7 (2×10^3 cells/well), HepG2 (2×10^3 cells/well), BxPC3 (2×10^3 cells/well), or CEM (5×10^3 cells/well) cells and allowed to incubate for 8 days at 37° C. A medium only control was used to determine the minimum absorbance value […]. At the end of the growth period, MTS dye from the CellTiter 96 Aqueous One Solution Cell Proliferation Assay kit (Promega) was added to each well and the plate was incubated for an additional 2 hours. The absorbance at 490 nm was read with a Victor3 plate reader (Perkin Elmer) using the medium only control wells as blanks. The 50% inhibition value (CC50) was determined by comparing the absorbance in wells containing cells and test compound to untreated cell control wells.

[4] = Cell Cytotoxicity Assays (MTS dye); details: human, 50% inhibition value, cell line not given; for CC50: 8 days
Method: as §1, §2

[5] = Hepatitis C virus, 96 h, read-out: EC90

| SMILES | EC90 [1, 5] [µM] | CC50 [4] [µM] | other results |
| --- | --- | --- | --- |
| CNC(=O)c1c(-c2ccc(F)cc2)oc2cc(N(CCO)S(C)(=O)=O)c(C3CC3)cc12 [Compound 44, 5-cyclopropyl-2-(4-fluorophenyl)-6-[(2-hydroxyethyl)(methylsulfonyl)amino]-N-methyl-3-Benzofurancarboxamide, reference compound] | 0.02 | – | CC50 [2]: > 10 µM |
| CC(C)OC(=O)[C@H](C)NP(=O)(OC[C@H]1O[C@@H](n2ccc(=O)[nH]c2=O)[C@](C)(F)[C@@H]1O)Oc1ccccc1 (stereo partly drawn) [Compound 110, (S)-2-{[(1R,4R,5R)-5-(2,4-Dioxo-3,4-dihydro-2H-pyrimidin-1-yl)-4-(R)-fluoro-3-hydroxy-4-methyl-tetrahydro-furan-2-ylmethoxy]-phenoxy-phosphorylamino}-propionic acid (S)-isopropyl ester] | – | – | EC90 ([1]; read-out: EC90): 0.22 µM; CC50 [3]: > 20 µM |
| COc1nc(N)nc2c1ncn2[C@@H]1O[C@H](COP(=O)(NCc2ccccc2)OCCSC(=O)C(C)(C)CO)[C@@H](O)[C@@]1(C)O (single isomer, unassigned) [Compound 131b] | – | – | EC90 ([1]; read-out: EC90): 0.186 µM; CC50 [3]: > 20 µM |
| CC(C)(CO)C(=O)SCCOP(=O)(NCc1ccccc1)OC[C@H]1O[C@@H](n2cnc3c(=O)[nH]c(N)nc32)[C@](C)(O)[C@@H]1O (single isomer, unassigned) [Compound 132a] | 0.3 | – | CC50 at 8 days [4]: > 20 µM |
| COc1nc(N)nc2c1ncn2[C@@H]1O[C@H](CO[P@@](=O)(N[C@@H](C)C(=O)OC(C)C)Oc2ccccc2)[C@@H](O)[C@@]1(C)F [Compound 117, SP-(2S)-isopropyl 2-(((((2R,3R,4R,5R)-5-(2-amino-6-methoxy-9H-purin-9-yl)-4-fluoro-3-hydroxy-4-methyltetrahydrofuran-2-yl)methoxy)(phenoxy)phosphoryl)amino)propanoate] | 0.13 | > 20 | – |
| CC(C)OC(=O)[C@H](C)N[P@](=O)(OC[C@H]1O[C@@H](n2ccc3c(N)ncnc32)[C@](C)(O)[C@@H]1O)Oc1ccccc1 [Compound 139, (S)-2-{(S)-[(2R,3R,4R,5R)-5-(4-amino-pyrrolo[2,3-d]pyrimidin-7-yl)-3,4-dihydroxy-4-methyl-tetrahydro-furan-2-ylmethoxy]-phenoxy-phosphorylamino}-propionic acid isopropyl ester] | 0.02 | > 10 | – |
| COc1nc(N)nc2c1ncn2[C@@H]1O[C@H](CO[P@@](=O)(N[C@@H](C)C(=O)OC(C)C)Oc2ccccc2)[C@@H](O)[C@@]1(C)O [Compound 133, (S)-isopropyl 2-(((S)-(((2R,3R,4R,5R)-5-(2-amino-6-methoxy-9H-purin-9-yl)-3,4-dihydroxy-4-methyltetrahydrofuran-2-yl)methoxy)(phenoxy)phosphoryl)amino)propanoate] | 0.078 | 4.14 | – |
| COc1nc(N)nc2c1ncn2[C@@H]1O[C@H](COP(=O)(N[C@@H](C)C(=O)OCC(C)(C)C)Oc2cccc3ccccc23)[C@@H](O)[C@@]1(C)O (stereo partly drawn) [Compound 137, (2S)-neopentyl 2-(((((2R,3R,4R,5R)-5-(2-amino-6-methoxy-9H-purin-9-yl)-3,4-dihydroxy-4-methyltetrahydrofuran-2-yl)methoxy)(naphthalen-1-yloxy)phosphoryl)amino)propanoate] | – | – | EC90 ([1]; Hepatitis C virus, 96 h): 0.0017 µM; CC50 at 8 days [4]: > 1 µM |
| CC(C)OC(=O)[C@H](C)N[P@](=O)(OC[C@H]1O[C@@H](n2cnc3c(=O)[nH]c(N)nc32)[C@](C)(O)[C@@H]1O)Oc1ccccc1 [Compound 134, (S)-isopropyl 2-(((S)-(((2R,3R,4R,5R)-5-(2-amino-6-oxo-1H-purin-9(6H)-yl)-3,4-dihydroxy-4-methyltetrahydrofuran-2-yl)methoxy)(phenoxy)phosphoryl)amino)propanoate] | 0.56 | > 20 | – |
| COc1nc(N)nc2c1ncn2[C@@H]1O[C@H](COP(=O)(N[C@@H](C)C(=O)OCC(C)(C)C)Oc2cccc3ccccc23)[C@@H](O)[C@@]1(C)F (stereo partly drawn) [Compound 140, (2S)-neopentyl 2-(((((2R,3R,4R,5R)-5-(2-amino-6-methoxy-9H-purin-9-yl)-4-fluoro-3-hydroxy-4-methyltetrahydrofuran-2-yl)methoxy)(naphthalen-1-yloxy)phosphoryl)amino)propanoate] | – | – | EC90 ([1]; Hepatitis C virus, 96 h): 0.0035 µM; CC50 at 8 days [4]: > 20 µM |
| COc1nc(N)nc2c1ncn2[C@@H]1O[C@H](COP(=O)(NCc2ccccc2)OCCSC(=O)C(C)(C)CO)[C@@H](O)[C@@]1(C)O (single isomer, unassigned) [Compound 131a] | 0.093 | – | CC50 at 8 days [4]: > 20 µM |
| COc1nc(N)nc2c1ncn2[C@@H]1O[C@H](COP(=O)(N[C@@H](C)C(=O)OCC(C)(C)C)Oc2cccc3ccccc23)[C@@H](O)[C@@]1(C)O (stereo partly drawn) [Compound 137a, (S)-neopentyl 2-(((((2R,3R,4R,5R)-5-(2-amino-6-methoxy-9H-purin-9-yl)-3,4-dihydroxy-4-methyltetrahydrofuran-2-yl)methoxy)(naphthalen-1-yloxy)phosphoryl)amino)propanoate] | 0.0037 | 0.93 | – |
| CC(C)(CO)C(=O)SCCOP(=O)(NCc1ccccc1)OC[C@H]1O[C@@H](n2cnc3c(=O)[nH]c(N)nc32)[C@](C)(O)[C@@H]1O (single isomer, unassigned) [Compound 132b] | – | – | EC90 ([1]; read-out: EC90): 0.35 µM; CC50 [3]: > 20 µM |
| CNC(=O)c1c(-c2ccc(F)cc2)oc2cc(N(CCO[P@@](=O)(N[C@@H](C)C(=O)OC(C)C)Oc3ccccc3)S(C)(=O)=O)c(C3CC3)cc12 [Compound 135, (S)-isopropyl 2-(((S)-(2-(N-(5-cyclopropyl-2-(4-fluorophenyl)-3-(methylcarbamoyl)benzofuran-6-yl)methylsulfonamido)ethoxy)(phenoxy)phosphoryl)amino)propanoate] | 0.081 | > 20 | – |
